Assay results published in patent publication US9328138B2 (priority 2011, dated 2016).
Counter-ions that a name gives are not always drawn.

What was measured:
[1] = target: HCV NS3 protease genotype 3a (3A-1) (Hepatitis C virus genotype 3a, UniProt Q81258); assay: HCV NS3 protease time-resolved fluorescence (TRF) assay, genotype 3a; assay type: biochemical; details: Ki 3a
How it was run: (§1)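 IC50 values derive from 4-parameter fitting of TRF signal after a 6 h room-temperature cleavage of 25 nM peptide substrate by NS3/NS4A that had been pre-incubated 10 min with compound.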

[2] = target: T1, HCV genotype 1b (BK) NS3 modified enzyme with a R155K mutation (Hepatitis C virus genotype 1b, UniProt P26663, R1181K); assay: HCV NS3 protease time-resolved fluorescence (TRF) assay, genotype 1b R155K; assay type: biochemical; details: Ki 1b R155K
T1 construct: HCV genotype 1b (BK) NS3 modified enzyme
How it was run: as §1

[3] = genotype 1b (BK) NS3 R155K, single value
[4] = first of two values printed in the cell (not explained)
[5] = second of two values printed in the cell (not explained)

In the case of C=C[C@@H]1C[C@]1(NC(=O)[C@@H]1C[C@@H]2CN1C(=O)[C@H](C(C)(C)C)NC(=O)O[C@@H]1C[C@H]1CCCCCc1c(nc3ccccc3c1OC1CCN(CC)CC1)O2)C(=O)NS(=O)(=O)C1(C)CC1 [Example 229, (1aR,5S,8S,10R,22aR)-5-tert-butyl-N-[(1R,2S)-2-ethenyl-1-{[(1-methylcyclopropyl)sulfonyl]carbamoyl}cyclopropyl]-17-[(1-ethylpiperidin-4-yl)oxy]-3,6-dioxo-1,1a,3,4,5,6,9,10,18,19,20,21,22,22a-tetradecahydro-8H-7,10-methanocyclopropa[18,19][1,10,3,6] dioxadiazacyclononadecino[11,12-b]quinoline-8-carboxamide], the Ki [1] is reported as 0.25 nM and the Ki [2, 3] is reported as 0.034 nM.
Work on C=C[C@@H]1C[C@]1(NC(=O)[C@@H]1C[C@@H]2CN1C(=O)[C@H](C(C)(C)C)NC(=O)O[C@@H]1C[C@H]1CCCCCc1c(nc3ccccc3c1OC1CCN(CC3CC3)CC1)O2)C(=O)NS(=O)(=O)C1(C)CC1 [Example 230, (1aR,5S,8S,10R,22aR)-5-tent-butyl-17-{[1-(cyclopropylmethyl)piperidin-4-yl]oxy}-N-[(1R,2S)-2-ethenyl-1-{[(1-methylcyclopropyl)sulfonyl]carbamoyl}cyclopropyl]-3,6-dioxo-1,1a,3,4,5,6,9,10,18,19,20,21,22,22a-tetradecahydro-8H-7,10-methanocyclopropa[18,19][1,10,3,6] dioxadiazacyclononadecino[11,12-b]quinoline-8-carboxamide] yielded a Ki [1] of 0.38 nM and a Ki [2, 3] of 0.065 nM.
For C=C[C@@H]1C[C@]1(NC(=O)[C@@H]1C[C@@H]2CN1C(=O)[C@H](C(C)(C)C)NC(=O)O[C@@H]1C[C@H]1CCCCCc1c(nc3ccccc3c1O[C@@H]1C[C@H]3C[C@@H]1CN3CCOC)O2)C(=O)NS(=O)(=O)C1(C)CC1 [Example 231, (1aR,5S,8S,10R,22aR)-5-tert-butyl-N-[(1R,2S)-2-ethenyl-1-{[(1-methylcyclopropyl)sulfonyl]carbamoyl}cyclopropyl]-17-{[(1R,4R,5R)-2-(2-methoxyethyl)-2-azabicyclo[2.2.1]hept-5-yl]oxy}-3,6-dioxo-1,1a,3,4,5,6,9,10,18,19,20,21,22,22a-tetradecahydro-8H-7,10-methanocyclopropa[18,19][1,10,3,6] dioxadiazacyclononadecino[11,12-b]quinoline-8-carboxamide], the Ki [1] was 1.8 nM and the Ki [2, 3] was 0.13 nM.
C=C[C@@H]1C[C@]1(NC(=O)[C@@H]1C[C@@H]2CN1C(=O)[C@H](C1(C)CCCCC1)NC(=O)O[C@@H]1C[C@H]1CCCCCc1c(nc3ccccc3c1OC1CCN(C)CC1)O2)C(=O)NS(=O)(=O)C1(C)CC1 [Example 232, (1aR,5S,8S,10R,22aR)—N-[(1R,2S)-2-ethenyl-1-{[(1-methylcyclopropyl)sulfonyl]carbamoyl}cyclopropyl]-5-(1-methylcyclohexyl)-17-[(1-methylpiperidin-4-yl)oxy]-3,6-dioxo-1,1a,3,4,5,6,9,10,18,19,20,21,22,22a-tetradecahydro-8H-7,10-methanocyclopropa[18,19][1,10,3,6]dioxadiazacyclononadecino[11,12-b]quinoline-8-carboxamide] was tested, and the Ki [1] was 0.275 nM, the Ki [2, 4] was 0.02 nM and the Ki [2, 5] was 0.04 nM.
C=C[C@@H]1C[C@]1(NC(=O)[C@@H]1C[C@@H]2CN1C(=O)[C@H](C1Cc3ccccc3C1)NC(=O)O[C@@H]1C[C@H]1CCCCCc1c(nc3ccccc3c1OCCCN(C)C)O2)C(=O)NS(=O)(=O)C1(C)CC1 [Example 233, (1aR,5S,8S,10R,22aR)-5-(2,3-dihydro-1H-inden-2-yl)-17-[3-(dimethylamino)propoxy]-N-[(1R,2S)-2-ethenyl-1-{[(1-methylcyclopropyl)sulfonyl]carbamoyl}cyclopropyl]-3,6-dioxo-1,1a,3,4,5,6,9,10,18,19,20,21,22,22a-tetradecahydro-8H-7,10-methanocyclopropa[18,19][1,10,3,6]dioxadiazacyclononadecino[11,12-b]quinoline-8-carboxamide] gave a Ki [1] of 4.2 nM, a Ki [2, 4] of 0.015 nM and a Ki [2, 5] of 0.08 nM.
Compound C=C[C@@H]1C[C@]1(NC(=O)[C@@H]1C[C@@H]2CN1C(=O)[C@H](C(C)(C)C)NC(=O)O[C@@H]1C[C@H]1CCCCCc1c(nc3ccccc3c1OC1CCN(CC(F)(F)F)CC1)O2)C(=O)NS(=O)(=O)C1(C)CC1 [Example 234, (1aR,5S,8S,10R,22aR)-5-tert-butyl-N-[(1R,2S)-2-ethenyl-1-{[(1-methylcyclopropyl)sulfonyl]carbamoyl}cyclopropyl]-3,6-dioxo-17-{[1-(2,2,2-trifluoroethyl)piperidin-4-yl]oxy}-1,1a,3,4,5,6,9,10,18,19,20,21,22,22a-tetradecahydro-8H-7,10-methanocyclopropa[18,19][1,10,3,6]dioxadiazacyclononadecino[11,12-b]quinoline-8-carboxamide] has a Ki [1] of 29.1 nM, a Ki [2, 4] of 0.08 nM and a Ki [2, 5] of 1.38 nM.
Compound C=C[C@@H]1C[C@]1(NC(=O)[C@@H]1C[C@@H]2CN1C(=O)[C@H](C1CCCCC1)NC(=O)O[C@@H]1C[C@H]1CCCCCc1c(nc3ccccc3c1OC1CCN(C(=O)OC(C)(C)C)CC1)O2)C(=O)NS(=O)(=O)C1(C)CC1 [Example 235, tert-butyl 4-{[(1aR,5S,8S,10R,22aR)-5-cyclohexyl-8-{[(1R,2S)-2-ethenyl-1-{[(1-methylcyclopropyl)sulfonyl]carbamoyl}cyclopropyl]carbamoyl}-3,6-dioxo-1,1a,3,4,5,6,9,10,18,19,20,21,22,22a-tetradecahydro-8H-7,10-methanocyclopropa[18,19][1,10,3,6]dioxadiazacyclononadecino[11,12-b]quinolin-17-yl]oxy}piperidine-1-carboxylate] has a Ki [1] of 203 nM, a Ki [2, 4] of 0.53 nM and a Ki [2, 5] of 4.36 nM.
Compound C=C[C@@H]1C[C@]1(NC(=O)[C@@H]1C[C@@H]2CN1C(=O)[C@H](C1CCCCC1)NC(=O)O[C@@H]1C[C@H]1CCCCCc1c(nc3ccccc3c1OC1CCN(CC(F)(F)F)CC1)O2)C(=O)NS(=O)(=O)C1(C)CC1 [Example 236, 4-{[(1aR,5S,8S,10R,22aR)-5-cyclohexyl-8-{[(1R,2S)-2-ethenyl-1-{[(1-methylcyclopropyl)sulfonyl]carbamoyl}cyclopropyl]carbamoyl}-3,6-dioxo-1,1a,3,4,5,6,9,10,18,19,20,21,22,22a-tetradecahydro-8H-7,10-methanocyclopropa[18,19][1,10,3,6]dioxadiazacyclononadecino[11,12-b]quinolin-17-yl]oxy}-1-(2,2,2-trifluoroethyl)piperidinium formate] has a Ki [1] of 110 nM, a Ki [2, 4] of 0.33 nM and a Ki [2, 5] of 5.44 nM.
Compound C=C[C@@H]1C[C@]1(NC(=O)[C@@H]1C[C@@H]2CN1C(=O)[C@H](C1CCCCC1)NC(=O)O[C@@H]1C[C@H]1CCCCCc1c(nc3ccccc3c1OC1CCN(CCOC)CC1)O2)C(=O)NS(=O)(=O)C1(C)CC1 [Example 237, 4-{[(1aR,5S,8S,10R,22aR)-5-cyclohexyl-8-{[(1R,2S)-2-ethenyl-1-{[(1-methylcyclopropyl)sulfonyl]carbamoyl}cyclopropyl]carbamoyl}-3,6-dioxo-1,1a,3,4,5,6,9,10,18,19,20,21,22,22a-tetradecahydro-8H-7,10-methanocyclopropa[18,19][1,10,3,6]dioxadiazacyclononadecino[11,12-b]quinolin-17-yl]oxy}-1-(2-methoxyethyl)piperidinium formate] has a Ki [1] of 0.8 nM, a Ki [2, 4] of 0.013 nM and a Ki [2, 5] of 0.098 nM.
